Data set [1] in a line: pulsating bubble technique ("bubble assay" of Enhorning, Enhorning Surfactometer). It counts as physicochemical. Particulars: peptide 10% by weight of PL, 37° C., negative pressure, mean of 3; for Pressure Gradient 15″: 15 seconds; for Pressure Gradient 1′: 1 minute; for Pressure Gradient 5′: 5 minutes. The method, then:
Measurements of surface pressure across an air-liquid interface (expressed in negative cm of H2O pressure) at minimal (γmin) bubble radius were determined at various times using the pulsating bubble technique described by Enhorning, J. Appl. Physiol. 43: 198-203 (1977).
Briefly, the Enhorning Surfactometer (Surfactometer International, Toronto, Ontario) measures the pressure gradient (ΔP) across a liquid-air interface of a bubble that pulsates at a rate of 20 cycles/min between a maximal (0.55 mm) and minimal (0.4 mm) radius. The bubble, formed in a 37° C., water-enclosed, 20-μl sample chamber, is monitored through a microscopic optic while the pressure changes are recorded on a strip chart recorder calibrated for 0 and −2 cm H2O.
Each of the surfactants identified in Table 5 was assayed for surfactant activity as evidenced by their ability to reduce surface tension in vitro using the “bubble assay” of Enhorning as described above.
After admixture with solvent, each peptide was admixed with phospholipids (PL), DPPC:PG, 3:1, in chloroform in a glass tube so that the amount of polypeptide added equaled one-tenth (10% by. weight) of the amount of PL added, to form a surfactant according to either method A, B or C.
Each of the surfactants was then assayed for surfactant activity as evidenced by their ability to reduce surface tension in vitro in the bubble assay performed as described above. The pressure gradient (ΔP) is a measure of surfactant activity in the polypeptide-PL third admixture which was determined using an Enhorning Surfactometer as described above. Measurements were obtained at time points of 15 seconds (15″), 1 minute (1′) and 5 minutes (5′) and are expressed as a mean of three independent measurements of the indicated polypeptide-PL admixture.

Data set [2] is described as follows: observation whether peptide/solvent admixture formed a solution or a suspension. It counts as physicochemical. The method, then:
Each polypeptide was admixed with the indicated solvent at a concentration of 2.5 mg of polypeptide per ml of solvent. […] Those admixtures forming a suspension were further admixed by water bath sonication for 10 seconds to form a very fine suspension, sufficient for pipetting using glass pipettes.

For data set [3], the system named is fetal rabbit lung. The experiment in a line: static compliance, fetal rabbit model. It counts as in vivo. Particulars: fetal rabbits, after 30 minutes of ventilation, instillation protocols 1 and 5 (FIGS. 2 and 3). On the procedure: A subject polypeptide was first admixed with solvent as described in Example 3. The resulting admixture was further admixed with phospholipid (PL) so that the amount of polypeptide added was either 3%, 7% or 10% by weight of the amount of PL added as indicated below.
Fetal rabbits were treated by injection into the trachea of a 0.1 ml solution that contained either a synthetic surfactant prepared in Example 4A or either 2 mg of native surfactant prepared as described in Example 1 of U.S. Pat. No. 5,260,273 (incorporated by reference herein) or 2 mg PL.
Fetal rabbits were treated by injection into the trachea from a single syringe the following four components such that the four components exit the syringe upon injection in the order listed: (1) 0.2 ml solution that contains either a synthetic surfactant prepared in Example 4A or either 4 mg of native surfactant, or 4 mg PL; (2) a 0.15 ml volume of air; (3) a 0.1 ml normal saline solution; and (4) a 0.3 ml volume of air. The above injection was then repeated 15 minutes after the first injection. […]
Static compliance measurements were made after 30 minutes of ventilation. […] The volume of air required to reach static pressures of 5, 10, 15, 20, 25 and 30 cm H2O was measured during both inflation and deflation phases to generate static pressure to volume curves as a measure of static compliance.

The test system of data set [4] is fetal rabbit lung. In words: dynamic compliance, fetal rabbit model. Particulars: single animal per line. It is filed as in vivo. The method, then: A subject polypeptide was first admixed with solvent as described in Example 3. […]
Surfactant was instilled in rabbit fetal lung by injection into the trachea from a single syringe of the following three components such that the components exit the syringe in the following order: (1) 0.05 ml air; (2) 0.1 ml of a synthetic surfactant prepared in Example 4A or either 2 mg of PL or 2 mg of native surfactant; and (3) 0.1 ml air.
From one syringe, a 0.1 ml aliquot of synthetic surfactant prepared as described in Example 4A (or 2 mg of NS or of PL), was instilled into the rabbit trachea as described above, followed by injection of 0.05 ml lactated Ringer's Solution and 0.2 ml air from a second syringe.
From one syringe, 0.1 ml of a synthetic surfactant prepared as described in Example 4A (or 2 mg of NS or of PL), 0.15 ml air, 0.1 ml saline, and 0.3 ml air were injected into the trachea as described above. Two subsequent aliquots of 0.3 ml air were given.
The surfactant activity of exemplary polypeptides of this invention was studied using the methods described in detail previously by Revak, et al, Am. Rev. Respir. Dis. 134: […] (1986), with the exceptions noted hereinbelow.
Twenty-seven day gestation fetal rabbits were delivered by hysterotomy and immediately injected with 0.05 ml Norcuron (Organon, Inc., N.J.) to prevent spontaneous breathing. The fetal rabbits were then weighed and a small cannula was inserted into the trachea by tracheotomy surfactant prepared as described above was then instilled into the fetal rabbit lung by one of the above instillation protocols.
Following instillation the rabbit was placed in a specially designed plethysmograph (containing a Celesco transducer) connected to a ventilator (Baby Bird, Baby Bird Corp., Palm Springs, Calif.) and the instilled lung was ventilated at a rate of 30 cycles per minute with a peak inspiratory pressure of 25 cm H2O, a positive end expiratory pressure of 4 cm H2O and an inspiratory time of 0.5 seconds. In some studies, dynamic compliance measurements were made at various times throughout the ventilation procedure. In others, static compliance measurements were made following ventilation.
Using the plethysmograph, dynamic compliance measurements were made at various times throughout a 60 minute ventilation period. […] Compliance was calculated by the formula below. [formula]
The above equation was solved with a multiple linear regression for C and R. The compliance (C) represents the elastic nature of the lungs and the resistance (R) represents the pressure necessary to overcome the resistance to the flow of gas into and out of the lungs.

Values joined by “and” are separate entries in the source; they are usually repeats but may differ in a detail not shown here. Identical values can stand only once. Marks after values point to notes of the source that are not given here.

Regarding FPIPLPYCWLCRALI [p1-15], in data set [1] (PL (DPPC:PG 3:1) 4 mg/ml), the “Pressure Gradient 15″” value is given as 0.94 cm of H2O, the “Pressure Gradient 1′” value was 0.82 cm of H2O and the “Pressure Gradient 5′” value is recorded as 0.48 cm of H2O. Besides, the “Admixture Formed” value in data set [2] (2.5 μg of peptide per μl of solvent, solvent n-propyl alcohol) was “suspension”. In addition, the “Admixture Formed” value in data set [2] (2.5 mg of polypeptide per ml of solvent, solvent N-propanol) is on record as “suspension”. Also, the “lung compliance measured by static compliance, compared with PL alone” value in the data set on fetal rabbit lung [3] was “did not produce improved lung compliance over PL alone”.
Take RYSVILLDTLLGRMLPQLVCRLVLRCSMDD [p52-81]: in data set [1] (PL (DPPC:PG 3:1) 4 mg/ml), the “Pressure Gradient 15″” value is given as 1.33 cm of H2O, the “Pressure Gradient 1′” value was 1.19 cm of H2O and the “Pressure Gradient 5′” value is 0.96 cm of H2O. Moreover, in data set [2] (2.5 μg of peptide per μl of solvent, solvent methanol:H2O), the “Admixture Formed” value is listed as “suspension”. Further, the “Admixture Formed” value in data set [2] (2.5 mg of polypeptide per ml of solvent, solvent 67% DMF 33% chloroform) was “solution”. For the same sequence, in the data set with fetal rabbit lung [4] (5% peptide to PL, Protocol 3), the “Dynamic Compliance, 30 minutes after surfactant instillation” value (“Dynamic Compliance, 30 minutes” for short) was 517 ml air/cm H2O (g body weight × 10^6) and 434 ml air/cm H2O (g body weight × 10^6); the “Dynamic Compliance, 60 minutes after surfactant instillation” value (“Dynamic Compliance, 60 minutes” below) is 226* ml air/cm H2O (g body weight × 10^6) and 55* ml air/cm H2O (g body weight × 10^6). In addition, in the data set with fetal rabbit lung [4] (10% peptide to PL, Protocol 2), the “Dynamic Compliance, 30 minutes” value was 195 ml air/cm H2O (g body weight × 10^6) and 43 ml air/cm H2O (g body weight × 10^6); the “Dynamic Compliance, 60 minutes” value was 1,243 ml air/cm H2O (g body weight × 10^6) and 1,690 ml air/cm H2O (g body weight × 10^6).
As to ERYSVILLDTLLGRMLPQLVCRLVLR [p51-76], in data set [1] (PL (DPPC:PG 3:1) 10 mg/ml), the “Pressure Gradient 15″” value is on record as 0.99 cm of H2O, the “Pressure Gradient 1′” value was 0.91 cm of H2O and the “Pressure Gradient 5′” value is 0.42 cm of H2O. In addition, the “Admixture Formed” value in data set [2] (2.5 mg of polypeptide per ml of solvent, solvent 37% chloroform 63% methanol) was “solution”. In addition, in the data set on fetal rabbit lung [4] (10% peptide to PL, Protocol 4), the “Dynamic Compliance, 10 minutes after surfactant instillation” value is 33 ml air/cm H2O (g body weight × 10^6) and 10 ml air/cm H2O (g body weight × 10^6) and 15 ml air/cm H2O (g body weight × 10^6); the “Dynamic Compliance, 20 minutes after surfactant instillation” value was 22 ml air/cm H2O (g body weight × 10^6) and 11 ml air/cm H2O (g body weight × 10^6) and 36 ml air/cm H2O (g body weight × 10^6); the “Dynamic Compliance, 30 minutes” value was 56 ml air/cm H2O (g body weight × 10^6) and 186 ml air/cm H2O (g body weight × 10^6) and 109 ml air/cm H2O (g body weight × 10^6); the “Dynamic Compliance, 40 minutes after surfactant instillation” value is 87 ml air/cm H2O (g body weight × 10^6) and 358 ml air/cm H2O (g body weight × 10^6) and 241 ml air/cm H2O (g body weight × 10^6). Also, in the data set with fetal rabbit lung [4] (10% peptide to PL, Protocol 4), the “Dynamic Compliance, 50 minutes after surfactant instillation” value is 124 ml air/cm H2O (g body weight × 10^6) and 141 ml air/cm H2O (g body weight × 10^6) and 264 ml air/cm H2O (g body weight × 10^6); the “Dynamic Compliance, 60 minutes” value is 85 ml air/cm H2O (g body weight × 10^6) and 144* ml air/cm H2O (g body weight × 10^6) and 301 ml air/cm H2O (g body weight × 10^6).
Regarding ERYSVILLDTLLGRMLPQLVCRLVLRCSMD [p51-80], in data set [1] (PL (DPPC:PG 3:1) 10 mg/ml), the “Pressure Gradient 15″” value was 0.92 cm of H2O, the “Pressure Gradient 1′” value is 0.89 cm of H2O and the “Pressure Gradient 5′” value is given as 0.48 cm of H2O. Further, the “Admixture Formed” value in data set [2] (2.5 mg of polypeptide per ml of solvent, solvent 45% chloroform 55% methanol) was “solution”. In the data set on fetal rabbit lung [4] (10% peptide to PL, Protocol 4), the “Dynamic Compliance, 10 minutes after surfactant instillation” value was 17 ml air/cm H2O (g body weight × 10^6) and 76 ml air/cm H2O (g body weight × 10^6) and 23 ml air/cm H2O (g body weight × 10^6); the “Dynamic Compliance, 20 minutes after surfactant instillation” value was 41 ml air/cm H2O (g body weight × 10^6) and 94 ml air/cm H2O (g body weight × 10^6) and 71 ml air/cm H2O (g body weight × 10^6); the “Dynamic Compliance, 30 minutes” value was 52 ml air/cm H2O (g body weight × 10^6) and 149 ml air/cm H2O (g body weight × 10^6) and 130 ml air/cm H2O (g body weight × 10^6); the “Dynamic Compliance, 40 minutes after surfactant instillation” value is 78 ml air/cm H2O (g body weight × 10^6) and 149 ml air/cm H2O (g body weight × 10^6) and 156 ml air/cm H2O (g body weight × 10^6). For the same sequence, in the data set with fetal rabbit lung [4] (10% peptide to PL, Protocol 4), the “Dynamic Compliance, 50 minutes after surfactant instillation” value is 99 ml air/cm H2O (g body weight × 10^6) and 217 ml air/cm H2O (g body weight × 10^6) and 182 ml air/cm H2O (g body weight × 10^6); the “Dynamic Compliance, 60 minutes” value was 208 ml air/cm H2O (g body weight × 10^6) and 308 ml air/cm H2O (g body weight × 10^6) and 109* ml air/cm H2O (g body weight × 10^6).

The record behind these values is patent US6613734B2, “Peptides-containing liposomal surfactants” (The Scripps Research Institute, priority 1988, dated 2003).
